This note sets out measurements from patent US7276519B2, “Thieno[3,2-b]pyridine-6-carbonitriles and thieno[2,3-b]pyridine-5-carbonitriles as protein kinase inhibitors” (Wyeth, priority 2002, dated 2007).

“And” between values parts separate entries of the source, which are not always exact repeats. Identical values can stand only once. Like-named read-outs stand apart in the source and are kept apart here.

The target in series [1] is T1, Rat2 fibroblasts stably transformed with v-Src/Hu Lck fusion gene (Homo sapiens, UniProt P06239, cells depend on it, form not given).
T1 construct: Candidates are e.g. Schmidt-Ruppin A (P00524) or Prague C (P00526); The human Lck catalytic domain stands in place of the v-Src catalytic domain
Description: Anchorage independent Lck-transformed fibroblast proliferation assay. Type of series: cell-based, rat. As to the method:
Anchorage Independent Lck-Transformed Fibroblast Proliferation Assay
Rat2 fibroblasts stably transformed with a plasmid containing a CMV promotor controlled v-Src/Hu Lck fusion gene in which the catalytic domain of human Lck was inserted in place of the v-Src catalytic domain in the v-Src gene are used for the measurement of src dependent suspension growth. Ultra-low cluster plates (Costar # 3474) are seeded with 10,000 cells per well on Day 1. Compound is added in serial two-fold dilutions from 10 micromolar to 0.009 micromolar on Day 2 and MTS reagent (Promega) is added on Day 5 (100 microliters of MTS/medium mix+100 microliters of medium already on the cells and the absorbance is measured at 490 nm. The results are analyzed as follows to yield an IC50 for proliferation (micromolar units) as follow: % inhibition=(Abs490 nm sample−blank)/(Abs490 nm no cmpd control−blank)×100%. The results obtained for representative compounds of this invention are listed in Table 2. Multiple entries for a given compound indicate that it was tested multiple times.

Series [2] deals with Rat2 fibroblasts stably transformed with v-Src/Hu c-Src fusion gene. Put plainly: Anchorage independent Src-transformed fibroblast proliferation assay. Type of series: cell-based, rat. As to the method:
Anchorage Independent Src-Transformed Fibroblast Proliferation Assay Rat2 fibroblasts stably transformed with a plasmid containing a CMV promotor controlled v-Src/Hu c-Src fusion gene in which the catalytic domain of human c-Src was inserted in place of the v-Src catalytic domain in the v-Src gene are used for the measurement of src dependent suspension growth. […] Multiple entries for a given compound indicate that it was tested multiple times.

Setting [3] is: Table 2, suspension growth, MTS readout Day 5, read-out: Lck cells IC50.
[4] abbreviates: Table 3, read-out: Lck Cells IC50.
The mark [5] stands for this setting: Table 3, read-out: Src Cells IC50 μM or % inhib at 10 μM (IC50 values).
Where [6] appears, read: Rattus norvegicus, Rat2, Table 3, read-out: Src Cells IC50 μM or % inhib at 10 μM (IC50 values).

T1 sequence (P06239 whole entry, change not shown, the tested form may be a part): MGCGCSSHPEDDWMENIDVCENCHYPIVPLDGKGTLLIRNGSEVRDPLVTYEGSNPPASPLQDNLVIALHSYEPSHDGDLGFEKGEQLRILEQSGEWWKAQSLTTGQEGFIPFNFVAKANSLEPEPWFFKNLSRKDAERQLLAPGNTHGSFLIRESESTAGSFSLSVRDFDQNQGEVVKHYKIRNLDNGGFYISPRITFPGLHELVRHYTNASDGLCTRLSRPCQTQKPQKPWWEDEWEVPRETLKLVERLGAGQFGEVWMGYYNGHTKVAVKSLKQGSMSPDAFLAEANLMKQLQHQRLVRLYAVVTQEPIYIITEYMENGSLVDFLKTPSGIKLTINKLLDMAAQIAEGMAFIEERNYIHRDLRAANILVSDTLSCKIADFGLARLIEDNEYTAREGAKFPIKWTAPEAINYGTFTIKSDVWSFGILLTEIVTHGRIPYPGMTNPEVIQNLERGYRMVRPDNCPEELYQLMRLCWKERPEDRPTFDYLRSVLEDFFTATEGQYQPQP

The melting point is the temperature of the solid-liquid transition. With `COc1cc(Nc2c(C#N)cnc3cc(-c4ccc(CN5CCOCC5)cc4)sc23)c(Cl)cc1Cl` [Example 15, 7-[(2,4-Dichloro-5-methoxyphenyl)amino]-2-[4-(4-morpholinylmethyl)phenyl]thieno[3,2-b]pyridine-6-carbonitrile], the melting point was in the range of 244 to 245 °C. Also, in series [1] (setting [3]), the GI50 turned out to be 350 nM.

`COc1cc(Nc2c(C#N)cnc3cc(-c4ccc(CNCCC(C)C)cc4)sc23)c(Cl)cc1Cl` [Example 121, 7-[(2,4-dichloro-5-methoxyphenyl)amino]-2-(4-{[(3-methylbutyl)amino]methyl}phenyl)thieno[3,2-b]pyridine-6-carbonitrile] registered a melting point of 195 to 197 °C. The GI50 in series [1] (setting [4]) was 525 nM and 576 nM and 951 nM.

The compound `COc1cc(Nc2c(C#N)cnc3cc(C#Cc4cccc(CN(C)C)n4)sc23)c(Cl)cc1Cl` [Example 87, 7-[(2,4-dichloro-5-methoxyphenyl)amino]-2-({6-[(dimethylamino)methyl]pyridin-2-yl}ethynyl)thieno[3,2-b]pyridine-6-carbonitrile] yielded a melting point of 190 to 191 °C. The GI50 in series [1] (setting [4]) was 1000 nM and 1850 nM.

With `COc1cc(Nc2c(C#N)cnc3cc(C#Cc4cncn4C)sc23)c(Cl)cc1Cl` [Example 127, 7-[(2,4-dichloro-5-methoxyphenyl)amino]-2-[(1-methyl-1H-imidazol-5-yl)ethynyl]thieno[3,2-b]pyridine-6-carbonitrile], the “Src Cells IC50 μM or % inhib at 10 μM (% values)” value in series [2] (Table 3, at 10 μM) is 0% and 9%. In series [1] (setting [4]), the GI50 was over 10000 nM.

For orientation: IC50 means the midpoint of a concentration-inhibition curve. Regarding “7-[(2,4-dichloro-5-methoxyphenyl)amino]-2-{4-[(4-pyrrolidin-1-ylpiperidin-1-yl)methyl]phenyl}thieno[3,2-b]pyridine-6-carbonitrile [Example 71]”, in series [2] (setting [5]), the IC50 is 1.6 µM and 0.9 µM. In addition, in series [1] (setting [4]), the GI50 was 200 nM and 110 nM.

`COc1cc(Nc2c(C#N)cnc3cc(-c4ccc(CN5CCN(c6ccccc6OC)CC5)cc4)sc23)c(Cl)cc1Cl` [Example 120, 7-[(2,4-dichloro-5-methoxyphenyl)amino]-2-(4-{[4-(2-methoxyphenyl)piperazin-1-yl]methyl}phenyl)thieno[3,2-b]pyridine-6-carbonitrile] displayed a melting point of 176 to 179 °C. Besides, the GI50 in series [1] (setting [4]) is 8900 nM and > 10000 nM.

As to `COc1cc(Nc2c(C#N)cnc3cc(C#Cc4cnn(CCO)c4)sc23)c(Cl)cc1Cl` [Example 130, 7-[(2,4-dichloro-5-methoxyphenyl)amino]-2-{[1-(2-hydroxyethyl)-1H-pyrazol-4-yl]ethynyl}thieno[3,2-b]pyridine-6-carbonitrile], the IC50 in series [2] (setting [6]) worked out at 5.59 µM; in series [2] (setting [5]) it was 3.2 µM. For the same compound, in series [1] (setting [4]), the GI50 was 3640 nM and 4070 nM.

`COc1cc(Nc2c(C#N)cnc3cc(-c4csc(CN5CCN(C)CC5)c4)sc23)c(Cl)cc1Cl` [Example 38, 7-[(2,4-Dichloro-5-methoxyphenyl)amino]-2-{5-[(4-methylpiperazin-1-yl)methyl]thien-3-yl}thieno[3,2-b]pyridine-6-carbonitrile] had a melting point of 224 to 226 °C. Moreover, the GI50 in series [1] (setting [3]) was 170 nM and 180 nM and 130 nM.

For `COc1cc(Nc2c(C#N)cnc3cc(-c4ccc(CN5C[C@H](C)NC[C@H]5C)cc4)sc23)c(Cl)cc1Cl` [Example 114, 7-[(2,4-dichloro-5-methoxyphenyl)amino]-2-(4{[(2R,5S)-2,5-dimethylpiperazin-1-I]methyl}phenyl)thieno[3,2-b]pyridine-6-carbonitrile], in series [1] (setting [4]), the GI50 is 156 nM and 174 nM.

For `COc1cc(Nc2c(C#N)cnc3cc(-c4ccc(C(=O)N(C)C)cc4)sc23)c(Cl)cc1Cl` [Example 136, 4-{6-cyano-7-[(2,4-dichloro-5-methoxyphenyl)amino]thieno[3,2-b]pyridin-2-yl}-N,N-dimethylbenzamide], the melting point lay in the range of 246 to 249 °C. Besides, in series [1] (setting [4]), the GI50 is 463 nM and 331 nM and 341 nM.

Consider `COc1cc(Nc2c(C#N)cnc3cc(-c4ccn(CCN(C)C)c4)sc23)c(Cl)cc1Cl` [Example 125, 7-[(2,4-dichloro-5-methoxyphenyl)amino]-2-{1-[2-(dimethylamino)ethyl]-1H-pyrrol-3-yl}thieno[3,2-b]pyridine-6-carbonitrile], for which the IC50 in series [2] (setting [6]) was over 10 µM. Further, in series [1] (setting [4]), the GI50 was > 10000 nM and 5800 nM.

Turning to `COc1cc(Nc2c(C#N)cnc3cc(-c4ccc(C=O)s4)sc23)c(Cl)cc1Cl` [Example 79, 7-[(2,4-dichloro-5-methoxyphenyl)amino]-2-(5-formylthien-2-yl)thieno[3,2-b]pyridine-6-carbonitrile], the IC50 in series [2] (setting [6]) stood at 2.4 µM; in series [2] (setting [5]), 2.8 µM. In addition, in series [1] (setting [4]), the GI50 is 1500 nM and 1600 nM.

On to `COc1cc(Nc2c(C#N)cnc3cc(-c4ccc(CN(C)C)cn4)sc23)c(Cl)cc1Cl` [Example 132, 7-[(2,4-dichloro-5-methoxyphenyl)amino]-2-{5-[(dimethylamino)methyl]pyridin-2-yl}thieno[3,2-b]pyridine-6-carbonitrile], for which, in series [1] (setting [4]), the GI50 was 112 nM and 96 nM.

For the compound `COc1cc(Nc2c(C#N)cnc3cc(-c4ccc(CN(C)CCCN(C)C)cc4)sc23)c(Cl)cc1Cl` [Example 85, 7-[(2,4-dichloro-5-methoxyphenyl)amino]-2-(4-{[[3-(dimethylamino)propyl](methyl)amino]methyl}phenyl)thieno[3,2-b]pyridine-6-carbonitrile], the IC50 in series [2] (setting [6]) worked out at 3.3 µM; in series [2] (setting [5]), 3.16 µM. Further, the GI50 in series [1] (setting [4]) was 500 nM.

`COc1cc(Nc2c(C#N)cnc3cc(-c4cc[nH]c4)sc23)c(Cl)cc1Cl` [Example 90, 7-[(2,4-dichloro-5-methoxyphenyl)amino]-2-(1H-pyrrol-3-yl)thieno[3,2-b]pyridine-′6-carbonitrile]: in series [2] (setting [5]), the IC50 was 2.6 µM and 3.1 µM. The GI50 in series [1] (setting [4]) is 2700 nM and 2400 nM.

Compound `COc1cc(Nc2c(C#N)cnc3cc(-c4ccc(CN(C)C)cc4)sc23)c(Cl)cc1Cl` [Example 62, 7-[(2,4-Dichloro-5-methoxyphenyl)amino]-2-{4-[(dimethylamino)methyl]phenyl}thieno[3,2-b]pyridine-6-carbonitrile] had a melting point of 224 to 225 °C. For the same compound, the GI50 in series [1] (setting [3]) is 79 nM.

Take `COc1cc(Nc2c(C#N)cnc3cc(-c4cn[nH]c4)sc23)c(Cl)cc1Cl` [Example 129, 7-[(2,4-dichloro-5-methoxyphenyl)amino]-2-(1 H-pyrazol-4-yl)thieno[3,2-b]pyridine-6-carbonitrile]: the IC50 amounted to 3.23 µM in series [2] (setting [6]) and 2.19 µM in series [2] (setting [5]). For the same compound, in series [1] (setting [4]), the GI50 was 1460 nM and 1400 nM.

In the case of `COc1cc(Nc2c(C#N)cnc3cc(-c4cnn(CCN5CCOCC5)c4)sc23)c(Cl)cc1Cl` [Example 131, 7-[(2,4-dichloro-5-methoxyphenyl)amino]-2-[1-(2-morpholin-4-ylethyl)-1H-pyrazol-4-yl]thieno[3,2-b]pyridine-6-carbonitrile], in series [2] (Rattus norvegicus, Rat2, Table 3, at 10 μM, read-out: Src Cells IC50 μM or % inhib at 10 μM (% values)), the inhibition at 10 µM is 16%. In addition, the “Src Cells IC50 μM or % inhib at 10 μM (% values)” value in series [2] (Table 3, at 10 μM) was 17%. In addition, the GI50 in series [1] (setting [4]) is over 10000 nM.

In the case of `COc1cc(Nc2c(C#N)cnc3cc(-c4ccc(C=O)o4)sc23)c(Cl)cc1Cl` [Example 67, 7-[(2,4-dichloro-5-methoxyphenyl)amino]-2-(5-formyl-2-furyl)thieno[3,2-b]pyridine-6-carbonitrile], in series [2] (setting [6]), the IC50 turned out to be 3.7 µM. Besides, in series [1] (setting [4]), the GI50 was 1500 nM and 1700 nM.

As for `COc1cc(Nc2c(C#N)cnc3cc(C#Cc4cn[nH]c4)sc23)c(Cl)cc1Cl` [Example 101, 7-[(2,4-dichloro-5-methoxyphenyl)amino]-2-(1H-pyrazol-4-ylethynyl)thieno[3,2-b]pyridine-6-carbonitrile], the IC50 in series [2] (setting [6]) worked out at 0.804 µM; in series [2] (setting [5]) it was 0.81 µM. For the same compound, the GI50 in series [1] (setting [4]) was 938 nM and 804 nM.

In the case of `COc1cc(Nc2c(C#N)cnc3cc(C#Cc4cnn(CCN5CCOCC5)c4)sc23)c(Cl)cc1Cl` [Example 65, 7-[(2,4-Dichloro-5-methoxyphenyl)amino]-2-{[1-(2-morpholin-4-ylethyl)-1H-pyrazol-4-yl]ethynyl}thieno[3,2-b]pyridine-6-carbonitrile], the IC50 in series [2] (setting [6]) is 0.7 µM. Further, the GI50 in series [1] (setting [4]) was over 10000 nM.

Take `COc1cc(Nc2c(C#N)cnc3cc(-c4ccc(CN5CCN(Cc6ccccn6)CC5)cc4)sc23)c(Cl)cc1Cl` [Example 124, 7-[(2,4-dichloro-5-methoxyphenyl)amino]-2-(4-{[4-(pyridin-2-ylmethyl)piperazin-1-yl]methyl}phenyl)thieno[3,2-b]pyridine-6-carbonitrile]: the melting point fell in the range of 105 to 107 °C. Moreover, in series [2] (setting [6]), the IC50 came out at 0.914 µM. The IC50 in series [2] (setting [5]) was found to be 0.576 µM.

In turn, `COc1cc(Nc2c(C#N)cnc3cc(C#Cc4ccncc4)sc23)c(Cl)cc1Cl` [Example 34, 7-[(2,4-Dichloro-5-methoxyphenyl)amino]-2-(pyridin-4-ylethynyl)thieno[3,2-b]pyridine-6-carbonitrile] gave a melting point of 221 to 223 °C. Moreover, in series [2] (Rattus norvegicus, Rat2, 120 h, Table 1, suspension growth, MTS readout Day 5, read-out: Src cells IC50), the IC50 was 8.6 µM.
